Results from US11446287B2, “Compounds and methods for EP300 or CBP modulation and indications therefor” (Opna Immuno-Oncology SA, priority 2019, dated 2022).
pIC50: −log10 of the molar value.

Each compound was assayed against T1, Recombinant human CBP containing the bromodomain (CBP-BD (1043-1159)) (Homo sapiens, UniProt Q92793) (assay: CBP Alphascreen binding assay). Conditions: read-out: CREBBP (CBP) IC50.
T1 construct: Recombinant human CBP bromodomain (CBP-BD (1043-1159)); made in house; host or cells: E. coli BL21-CodonPlus (DE3), modified pET vector
T1 sequence (Q92793 1081-1197): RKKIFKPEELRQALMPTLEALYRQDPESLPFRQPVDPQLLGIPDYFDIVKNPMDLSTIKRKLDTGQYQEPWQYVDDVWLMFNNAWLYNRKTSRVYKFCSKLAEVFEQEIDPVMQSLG
Method in brief: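 Buffer: 50 mM HEPES pH 7.5, 50 mM NaCl, 0.01% BSA, 0.01% Triton X-100, 2 mM DTT. The signal was normalised to plate controls and fitted with a four-parameter curve to give IC50.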

Structure (SMILES)	pIC50
Cc1noc(C)c1-c1cnc2c(c1)c(-c1ccc(C(N)=O)cc1)cn2C(c1ccccn1)C1CCCC1 (stereo not drawn) [P-0020, 4-(1-(cyclopentyl(pyridin-2-yl)methyl)-5-(3,5-dimethylisoxazol-4-yl)-1H-pyrrolo[2,3-b]pyridin-3-yl)benzamide]	5.10 to 6.00
CNC(=O)c1ccc(-c2cn(C(c3ccccn3)C3CCCC3)c3ncc(-c4c(C)noc4C)cc23)cc1 (stereo not drawn) [P-0021, 4-(1-(cyclopentyl(pyridin-2-yl)methyl)-5-(3,5-dimethylisoxazol-4-yl)-1H-pyrrolo[2,3-b]pyridin-3-yl)-N-methylbenzamide]	5.10 to 6.00
Cc1noc(C)c1-c1cnc2c(c1)c(-c1ccc(C#N)cc1)cn2C(c1ccccn1)C1CCCC1 (stereo not drawn) [P-0022, 4-(1-(cyclopentyl(pyridin-2-yl)methyl)-5-(3,5-dimethylisoxazol-4-yl)-1H-pyrrolo[2,3-b]pyridin-3-yl)benzonitrile]	3.00 to 5.10
Cc1noc(C)c1-c1cnc2c(c1)c(-c1ccc3c(c1)CNC3=O)cn2C(c1ccccn1)C1CCCC1 (stereo not drawn) [P-0023, 5-(1-(cyclopentyl(pyridin-2-yl)methyl)-5-(3,5-dimethylisoxazol-4-yl)-1H-pyrrolo[2,3-b]pyridin-3-yl)isoindolin-1-one]	5.10 to 6.00
Cc1noc(C)c1-c1cnc2c(c1)c(-c1ccc(-c3nn[nH]n3)cc1)cn2C(c1ccccn1)C1CCCC1 (stereo not drawn) [P-0024, 4-(3-(4-(2H-tetrazol-5-yl)phenyl)-1-(cyclopentyl(pyridin-2-yl)methyl)-1H-pyrrolo[2,3-b]pyridin-5-yl)-3,5-dimethylisoxazole]	5.10 to 6.00
Cc1noc(C)c1-c1cnc2c(c1)c(-c1ccc(C(=O)O)c(F)c1)cn2C(c1ccccn1)C1CCCC1 (stereo not drawn) [P-0025, 4-(1-(cyclopentyl(pyridin-2-yl)methyl)-5-(3,5-dimethylisoxazol-4-yl)-1H-pyrrolo[2,3-b]pyridin-3-yl)-2-fluorobenzoic acid]	6.00 to 10.00
Cc1noc(C)c1-c1cnc2c(c1)c(-c1ccc(C(=O)O)nc1)cn2C(c1ccccn1)C1CCCC1 (stereo not drawn) [P-0026, 5-(1-(cyclopentyl(pyridin-2-yl)methyl)-5-(3,5-dimethylisoxazol-4-yl)-1H-pyrrolo[2,3-b]pyridin-3-yl)picolinic acid]	6.00 to 10.00
Cc1cc(-c2c(C(F)(F)F)n([C@@H](C)c3ccccn3)c3cc(-c4c(C)noc4C)cnc23)ccc1C(=O)O [P-0243, (S)-4-(6-(3,5-dimethylisoxazol-4-yl)-1-(1-(pyridin-2-yl)ethyl)-2-(trifluoromethyl)-1H-pyrrolo[3,2-b]pyridin-3-yl)-2-methylbenzoic acid]	5.10 to 6.00
COc1cc(-c2c(C(F)(F)F)n([C@@H](C)c3ccccn3)c3cc(-c4c(C)noc4C)cnc23)ccc1C(=O)O [P-0244, (S)-4-(6-(3,5-dimethylisoxazol-4-yl)-1-(1-(pyridin-2-yl)ethyl)-2-(trifluoromethyl)-1H-pyrrolo[3,2-b]pyridin-3-yl)-2-methoxybenzoic acid]	5.10 to 6.00
Cc1noc(C)c1-c1cnc2c(-c3cccc(C(=O)O)c3F)c(C(F)(F)F)n([C@@H](C)c3ccccn3)c2c1 [P-0245, (S)-3-(6-(3,5-dimethylisoxazol-4-yl)-1-(1-(pyridin-2-yl)ethyl)-2-(trifluoromethyl)-1H-pyrrolo[3,2-b]pyridin-3-yl)-2-fluorobenzoic acid]	6.00 to 10.00
Cc1noc(C)c1-c1cnc2c(-c3cccc(C(=O)O)c3C)c(C(F)(F)F)n([C@@H](C)c3ccccn3)c2c1 [P-0246, (S)-3-(6-(3,5-dimethylisoxazol-4-yl)-1-(1-(pyridin-2-yl)ethyl)-2-(trifluoromethyl)-1H-pyrrolo[3,2-b]pyridin-3-yl)-2-methylbenzoic acid]	5.10 to 6.00
Cc1noc(C)c1-c1cnc2c(-c3cccc(C(=O)O)c3Cl)c(C(F)(F)F)n([C@@H](C)c3ccccn3)c2c1 [P-0247, (S)-2-chloro-3-(6-(3,5-dimethylisoxazol-4-yl)-1-(1-(pyridin-2-yl)ethyl)-2-(trifluoromethyl)-1H-pyrrolo[3,2-b]pyridin-3-yl)benzoic acid]	6.00 to 10.00
CCOC(=O)c1cc(-c2cn(-c3ccc(F)cc3F)c3ncc(-c4c(C)noc4C)cc23)c(OCC)cc1O [P-0248, ethyl 5-(1-(2,4-difluorophenyl)-5-(3,5-dimethylisoxazol-4-yl)-1H-pyrrolo[2,3-b]pyridin-3-yl)-4-ethoxy-2-hydroxybenzoate]	3.00 to 5.10
CCOc1cc(O)c(C(=O)O)cc1-c1cn(-c2ccc(F)cc2F)c2ncc(-c3c(C)noc3C)cc12 [P-0249, 5-(1-(2,4-difluorophenyl)-5-(3,5-dimethylisoxazol-4-yl)-1H-pyrrolo[2,3-b]pyridin-3-yl)-4-ethoxy-2-hydroxybenzoic acid]	6.00 to 10.00
CCOc1cc(OC)c(C(=O)O)cc1-c1cn(-c2ccc(F)cc2F)c2ncc(-c3c(C)noc3C)cc12 [P-0250, 5-(1-(2,4-difluorophenyl)-5-(3,5-dimethylisoxazol-4-yl)-1H-pyrrolo[2,3-b]pyridin-3-yl)-4-ethoxy-2-methoxybenzoic acid]	6.00 to 10.00
Cc1noc(C)c1-c1cnc2c(c1)c(-c1ccc(C(=O)O)cc1OC(F)(F)F)cn2-c1cnccc1F [P-0251, 4-(5-(3,5-dimethylisoxazol-4-yl)-1-(4-fluoropyridin-3-yl)-1H-pyrrolo[2,3-b]pyridin-3-yl)-3-(trifluoromethoxy)benzoic acid]	6.00 to 10.00
Cc1noc(C)c1-c1cnc2c(c1)c(-c1ccc(C(=O)O)cc1OC(F)(F)F)cn2-c1cnccc1O [P-0252, 4-(5-(3,5-dimethylisoxazol-4-yl)-1-(4-hydroxypyridin-3-yl)-1H-pyrrolo[2,3-b]pyridin-3-yl)-3-(trifluoromethoxy)benzoic acid]	6.00 to 10.00
Cc1noc(C)c1-c1cnc2c(c1)c(-c1ccc(C(=O)O)cc1OC(F)(F)F)cn2-c1ccncc1Cl [P-0253, 4-(1-(3-chloropyridin-4-yl)-5-(3,5-dimethylisoxazol-4-yl)-1H-pyrrolo[2,3-b]pyridin-3-yl)-3-(trifluoromethoxy)benzoic acid]	6.00 to 10.00
Cc1noc(C)c1-c1cnc2c(c1)c(-c1ccc(C(=O)O)cc1OC(F)(F)F)cn2-c1c(F)cccc1C#N [P-0254, 4-(1-(2-cyano-6-fluorophenyl)-5-(3,5-dimethylisoxazol-4-yl)-1H-pyrrolo[2,3-b]pyridin-3-yl)-3-(trifluoromethoxy)benzoic acid]	6.00 to 10.00
COc1cc(C(=O)O)cc(C)c1-c1cn(-c2ccccc2)c2ncc(-c3c(C)noc3C)cc12 [P-0255, 4-(5-(3,5-dimethylisoxazol-4-yl)-1-phenyl-1H-pyrrolo[2,3-b]pyridin-3-yl)-3-methoxy-5-methylbenzoic acid]	6.00 to 10.00
Cc1noc(C)c1-c1cnc2c(-c3ccc(C(=O)O)cc3C#N)c(C(F)(F)F)n([C@@H](C)c3ccccn3)c2c1 [P-0256, (S)-3-cyano-4-(6-(3,5-dimethylisoxazol-4-yl)-1-(1-(pyridin-2-yl)ethyl)-2-(trifluoromethyl)-1H-pyrrolo[3,2-b]pyridin-3-yl)benzoic acid]	6.00 to 10.00
Cc1noc(C)c1-c1cnc2c(-c3cc(C(=O)O)ccc3Cl)c(C(F)(F)F)n([C@@H](C)c3ccccn3)c2c1 [P-0257, (S)-4-chloro-3-(6-(3,5-dimethylisoxazol-4-yl)-1-(1-(pyridin-2-yl)ethyl)-2-(trifluoromethyl)-1H-pyrrolo[3,2-b]pyridin-3-yl)benzoic acid]	6.00 to 10.00
CCOc1cc(C(=O)O)cc(OCC)c1-n1cc(-c2cnn(CS(C)(=O)=O)c2)c2ncc(-c3c(C)noc3C)cc21 [P-0258, 4-(6-(3,5-dimethylisoxazol-4-yl)-3-(1-((methylsulfonyl)methyl)-1H-pyrazol-4-yl)-1H-pyrrolo[3,2-b]pyridin-1-yl)-3,5-diethoxybenzoic acid]	6.00 to 10.00
CCOc1cc(C(=O)O)cc(OCC)c1-n1cc(-c2cn(C(C)C)nc2C)c2ncc(-c3c(C)noc3C)cc21 [P-0259, 4-(6-(3,5-dimethylisoxazol-4-yl)-3-(1-isopropyl-3-methyl-1H-pyrazol-4-yl)-1H-pyrrolo[3,2-b]pyridin-1-yl)-3,5-diethoxybenzoic acid]	6.00 to 10.00
CCOc1cc(C(=O)O)cc(OCC)c1-n1cc(-c2cnn(CC(C)(C)O)c2)c2ncc(-c3c(C)noc3C)cc21 [P-0260, 4-(6-(3,5-dimethylisoxazol-4-yl)-3-(1-(2-hydroxy-2-methylpropyl)-1H-pyrazol-4-yl)-1H-pyrrolo[3,2-b]pyridin-1-yl)-3,5-diethoxybenzoic acid]	6.00 to 10.00
CCOc1cc(C(=O)O)cc(OCC)c1-n1cc(-c2cnn(C(F)F)c2)c2ncc(-c3c(C)noc3C)cc21 [P-0261, 4-(3-(1-(difluoromethyl)-1H-pyrazol-4-yl)-6-(3,5-dimethylisoxazol-4-yl)-1H-pyrrolo[3,2-b]pyridin-1-yl)-3,5-diethoxybenzoic acid]	6.00 to 10.00
CCOc1cc(C(=O)O)cc(OCC)c1-n1cc(-c2cnn(CCN(C)C)c2)c2ncc(-c3c(C)noc3C)cc21 [P-0262, 4-(3-(1-(2-(dimethylamino)ethyl)-1H-pyrazol-4-yl)-6-(3,5-dimethylisoxazol-4-yl)-1H-pyrrolo[3,2-b]pyridin-1-yl)-3,5-diethoxybenzoic acid]	6.00 to 10.00
CCOc1cc(C(=O)O)cc(OCC)c1-n1cc(-c2cn(C)nc2C)c2ncc(-c3c(C)noc3C)cc21 [P-0263, 4-(3-(1,3-dimethyl-1H-pyrazol-4-yl)-6-(3,5-dimethylisoxazol-4-yl)-1H-pyrrolo[3,2-b]pyridin-1-yl)-3,5-diethoxybenzoic acid]	6.00 to 10.00
CCOc1cc(C(=O)O)cc(OCC)c1-n1cc(-c2cnn(CC3CC3)c2)c2ncc(-c3c(C)noc3C)cc21 [P-0264, 4-(3-(1-(cyclopropylmethyl)-1H-pyrazol-4-yl)-6-(3,5-dimethylisoxazol-4-yl)-1H-pyrrolo[3,2-b]pyridin-1-yl)-3,5-diethoxybenzoic acid]	6.00 to 10.00
CCOc1cc(C(=O)O)cc(OCC)c1-n1cc(-c2cnn(C3CC3)c2)c2ncc(-c3c(C)noc3C)cc21 [P-0265, 4-(3-(1-cyclopropyl-1H-pyrazol-4-yl)-6-(3,5-dimethylisoxazol-4-yl)-1H-pyrrolo[3,2-b]pyridin-1-yl)-3,5-diethoxybenzoic acid]	6.00 to 10.00
